Assay [1] concerns RT112/84 cells (Bladder Cancer, FGFR3-TACC3 fusion). Briefly: Cancer cell line cell viability assay, RT112/84. It counts as cell-based. The following applies: Homo sapiens, 72 hours, Cell Titer-Glo 2.0, read-out: Cancer Cell Viability Assays RT112/84 (IC50 nM). From the text:
(§1) [table] To detect the change of intracellular ATP by Cell Titer-Glo® and to evaluate the inhibitory effect of the compounds on cancer cell lines by determining the in vitro IC50 value of the compounds. Cell Titer-Glo® 2.0 Luminescent cell viability assay reagent was purchased from Promega (Madison, Wis.). RT112/84, SNU-16, and KG-1 cell lines were purchased from American Type Culture Collection (Manassas, Va.). UM-UC-14 cell line was purchased from Sigma (St. Louis, Mo.). RT112/84, UM-UC-14, SNU-16, and KG-1 cells were cultured in RPMI1640 media supplemented with 10% fetal bovine serum. Cultures were maintained at 37° C. in a humidified atmosphere of 5% CO2 and 95% air. Cell Viability Assay Procedure: Cells were plated in 96-well clear bottom/white plates (Corning #3903) at 10,000 cells/well in 100 μl of media, incubated overnight. The next day, test compound DMSO stock solutions were made at 10 mM and 2 μM final concentration. Compounds were then added to cells in a 9-dose, […] dilution series starting at 30 μM with an HP 300e Digital Dispenser (each dose was applied in triplicate). DMSO was backfilled to each well up to 301 nL total volume of test compound+DMSO, and a total of 301 nL DMSO was added to a control/no test compound well in triplicate. The cells in cell culture plates were incubated with the compounds at 37° C. and 5% CO2 for 72 hours. Then 50 μl of Cell Titer Glo 2.0 reagent was added to each well of the cell culture plates. The contents were covered from light and mixed on an orbital shaker at room temperature for 10 min. Luminescence was recorded by a Synergy H1 Microplate Reader (Biotek, Winooski, Vt.). Cells were assessed as a percentage of DMSO only treated control cells. Curves were plotted and IC50 values were calculated using the GraphPad Prism 8 program based on a sigmoidal dose-response equation (4 parameter).
(ATP-based viability assays read luminescence as a measure of living cells.)

The next assay addresses T1, FGFR1 (Homo sapiens, UniProt P11362).
T1 construct: made in house; host or cells: E. coli host derived from BL21, infected with T7 phage
Kind of assay: Kinase binding assay (Kd), FGFR1. The following applies: 11-point 3-fold dilution, qPCR readout. In a few lines: (§2)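 Kinases expressed as T7 phage fusions are mixed with ligand-coated magnetic beads and compound (0.9% DMSO), then shaken 1 h at room temperature. After washing, bound kinase is eluted with free ligand for 30 min and measured by qPCR; Kd is obtained by Hill-equation fitting.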
On the technique in general: Real-time PCR tracks product formation cycle by cycle.

Assay [2] relates to SNU-16 cells (Gastric Carcinoma, FGFR2 amplification). Briefly: Cancer cell line cell viability assay, SNU-16. Type of assay: cell-based. The following applies: Homo sapiens, 72 hours, Cell Titer-Glo 2.0, read-out: Cancer Cell Viability Assays SNU-16 (IC50 nM).
From the text: as §1

For a further assay, the target named is T2, FGFR3 (V555M) (Homo sapiens, UniProt P22607, V555M).
T2 construct: made in house; host or cells: E. coli host derived from BL21, infected with T7 phage
T2 sequence (P22607 23-806 V555M): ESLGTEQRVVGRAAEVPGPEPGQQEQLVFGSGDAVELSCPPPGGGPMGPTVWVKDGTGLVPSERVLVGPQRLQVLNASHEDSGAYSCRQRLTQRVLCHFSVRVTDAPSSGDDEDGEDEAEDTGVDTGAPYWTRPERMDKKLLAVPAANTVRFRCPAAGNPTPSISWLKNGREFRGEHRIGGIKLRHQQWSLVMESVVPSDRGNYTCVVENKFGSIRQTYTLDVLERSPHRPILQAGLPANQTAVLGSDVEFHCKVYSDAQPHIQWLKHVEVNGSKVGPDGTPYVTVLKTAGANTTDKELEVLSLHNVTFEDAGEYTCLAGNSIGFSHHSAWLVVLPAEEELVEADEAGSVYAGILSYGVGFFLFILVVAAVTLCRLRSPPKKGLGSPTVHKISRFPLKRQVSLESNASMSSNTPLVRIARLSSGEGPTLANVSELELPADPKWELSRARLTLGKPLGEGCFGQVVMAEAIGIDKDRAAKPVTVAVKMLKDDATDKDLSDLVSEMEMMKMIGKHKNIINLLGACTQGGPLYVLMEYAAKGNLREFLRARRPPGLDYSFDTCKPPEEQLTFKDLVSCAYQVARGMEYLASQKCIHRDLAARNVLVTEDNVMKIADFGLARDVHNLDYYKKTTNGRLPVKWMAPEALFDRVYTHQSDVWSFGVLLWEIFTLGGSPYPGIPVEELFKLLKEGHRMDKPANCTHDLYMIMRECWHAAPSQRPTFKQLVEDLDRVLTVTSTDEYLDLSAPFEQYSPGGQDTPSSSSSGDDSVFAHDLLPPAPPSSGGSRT
Briefly: Kinase binding assay (Kd), FGFR3 (V555M). As to conditions: 11-point 3-fold dilution, qPCR readout. In outline: as §2

In another assay the target is T3, FGFR2 (Homo sapiens, UniProt P21802).
T3 construct: made in house; host or cells: E. coli host derived from BL21, infected with T7 phage
T3 sequence (P21802 22-821): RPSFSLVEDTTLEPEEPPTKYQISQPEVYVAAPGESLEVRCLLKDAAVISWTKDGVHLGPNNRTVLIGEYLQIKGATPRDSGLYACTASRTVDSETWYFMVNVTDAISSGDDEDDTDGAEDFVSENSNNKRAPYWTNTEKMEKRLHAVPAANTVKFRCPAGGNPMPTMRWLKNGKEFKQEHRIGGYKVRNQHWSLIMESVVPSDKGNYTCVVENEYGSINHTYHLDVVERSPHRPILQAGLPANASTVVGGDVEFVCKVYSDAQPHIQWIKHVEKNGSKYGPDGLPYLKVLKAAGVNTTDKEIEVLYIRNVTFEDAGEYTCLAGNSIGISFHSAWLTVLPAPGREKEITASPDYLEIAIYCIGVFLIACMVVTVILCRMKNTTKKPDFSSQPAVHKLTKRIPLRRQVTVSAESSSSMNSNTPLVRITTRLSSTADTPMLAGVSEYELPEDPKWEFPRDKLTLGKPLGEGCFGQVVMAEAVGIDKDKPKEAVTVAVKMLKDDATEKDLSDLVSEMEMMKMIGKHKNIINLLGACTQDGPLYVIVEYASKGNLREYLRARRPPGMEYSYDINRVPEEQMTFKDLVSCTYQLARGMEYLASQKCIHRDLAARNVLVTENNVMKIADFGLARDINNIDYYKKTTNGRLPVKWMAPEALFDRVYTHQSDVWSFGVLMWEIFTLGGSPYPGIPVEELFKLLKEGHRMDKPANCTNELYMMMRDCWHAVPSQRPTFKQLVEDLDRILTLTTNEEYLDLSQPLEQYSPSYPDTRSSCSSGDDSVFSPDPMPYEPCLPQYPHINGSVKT
Briefly: Kinase binding assay (Kd), FGFR2. The following applies: 11-point 3-fold dilution, qPCR readout. In outline: as §2

In the next assay the target is T4, FGFR4 (Homo sapiens, UniProt P22455).
T4 construct: made in house; host or cells: E. coli host derived from BL21, infected with T7 phage
T4 sequence (P22455 22-802): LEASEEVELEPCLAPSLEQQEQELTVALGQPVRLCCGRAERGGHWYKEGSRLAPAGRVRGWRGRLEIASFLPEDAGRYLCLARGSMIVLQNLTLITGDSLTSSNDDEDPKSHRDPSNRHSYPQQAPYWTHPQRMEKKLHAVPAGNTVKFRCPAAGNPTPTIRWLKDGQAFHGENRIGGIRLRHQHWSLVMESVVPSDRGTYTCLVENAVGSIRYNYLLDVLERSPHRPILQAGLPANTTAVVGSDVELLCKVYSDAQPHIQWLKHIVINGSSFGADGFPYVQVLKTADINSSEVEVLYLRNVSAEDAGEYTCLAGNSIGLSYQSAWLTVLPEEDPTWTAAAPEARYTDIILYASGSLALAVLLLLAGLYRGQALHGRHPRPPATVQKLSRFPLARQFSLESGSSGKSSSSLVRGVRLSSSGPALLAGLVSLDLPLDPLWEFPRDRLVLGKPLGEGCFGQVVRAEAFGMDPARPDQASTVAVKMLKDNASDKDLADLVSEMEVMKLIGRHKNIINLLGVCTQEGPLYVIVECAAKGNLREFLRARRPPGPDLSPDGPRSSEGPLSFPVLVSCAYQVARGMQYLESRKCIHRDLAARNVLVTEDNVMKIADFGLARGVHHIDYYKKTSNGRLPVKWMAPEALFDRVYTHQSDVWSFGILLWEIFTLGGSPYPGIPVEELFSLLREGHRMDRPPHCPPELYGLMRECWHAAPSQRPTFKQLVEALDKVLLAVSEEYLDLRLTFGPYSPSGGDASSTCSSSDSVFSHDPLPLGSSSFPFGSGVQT
Kind of assay: Kinase binding assay (Kd), FGFR4. As to conditions: 11-point 3-fold dilution, qPCR readout. In a few lines:
as §2

The target of another assay is T5, FGFR3 (Homo sapiens, UniProt P22607).
T5 construct: made in house; host or cells: E. coli host derived from BL21, infected with T7 phage
T5 sequence (P22607 23-806): as the sequence (P22607 23-806 V555M) above, with M533V counted along it
Briefly: Kinase binding assay (Kd), FGFR3. As to conditions: 11-point 3-fold dilution, qPCR readout. In a few lines: as §2

The target of assay [3] is T6, FGFR3-BAIAP2L1 Ba/F3 cells (Homo sapiens, UniProt P22607).
T6 construct: Ba/F3 FGFR3; FGFR3--BAIAP2L1 fusion; Advanced Cellular Dynamics, (Seattle, WA); fused on or other part: Q9UHR4 (BAR/IMD domain-containing adapter protein 2-like 1)
T6 sequence (P22607 whole entry, change not shown, the tested form may be a part): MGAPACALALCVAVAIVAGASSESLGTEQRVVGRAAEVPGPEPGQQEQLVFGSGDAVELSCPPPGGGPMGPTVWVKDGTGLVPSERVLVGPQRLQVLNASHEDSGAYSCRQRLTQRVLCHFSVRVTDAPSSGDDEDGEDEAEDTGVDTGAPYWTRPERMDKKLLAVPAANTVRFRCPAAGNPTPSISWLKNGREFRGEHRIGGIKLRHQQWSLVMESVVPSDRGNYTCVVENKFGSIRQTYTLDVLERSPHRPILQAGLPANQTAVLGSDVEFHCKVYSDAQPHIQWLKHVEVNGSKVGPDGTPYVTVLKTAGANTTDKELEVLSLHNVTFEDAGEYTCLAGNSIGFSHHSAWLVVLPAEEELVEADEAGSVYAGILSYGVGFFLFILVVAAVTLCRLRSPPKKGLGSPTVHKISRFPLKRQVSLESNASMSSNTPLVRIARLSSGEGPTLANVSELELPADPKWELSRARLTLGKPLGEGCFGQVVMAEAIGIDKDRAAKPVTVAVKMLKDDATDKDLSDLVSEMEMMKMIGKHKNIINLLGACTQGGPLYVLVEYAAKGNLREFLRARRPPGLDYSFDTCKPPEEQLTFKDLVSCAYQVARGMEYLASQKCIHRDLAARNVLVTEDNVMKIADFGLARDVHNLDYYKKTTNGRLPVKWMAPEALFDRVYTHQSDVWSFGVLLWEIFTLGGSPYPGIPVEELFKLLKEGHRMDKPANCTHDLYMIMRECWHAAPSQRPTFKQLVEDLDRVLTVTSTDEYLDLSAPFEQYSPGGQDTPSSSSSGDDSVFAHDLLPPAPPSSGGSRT
Kind of assay: Ba/F3 cell viability assay, FGFR3. It counts as cell-based. The following applies: FGFR3-BAIAP2L1 fusion Ba/F3, 48 hours, Cell Titer-Glo 2.0; read-out: Ba/F3 Cells FGFR3 (IC50 nM). The text has this:
Experimental Purpose: Recombinant kinase fusions are transduced into parental Ba/F3, which becomes dependent upon this constitutive kinase activity for IL3-independent survival. Inhibition of kinase activity leads to cell death, which is monitored using CellTiter-Glo® 2.0 (Promega) which measures intracellular ATP concentration that in turn serves as a marker for viability. FGFR1-BCR Ba/F3 and FGFR3-BAIAP2L1 Ba/F3 were obtained from Advanced Cellular Dynamics (Seattle, Wash.)
Cell Viability Assay Procedure: Cell Titer-Glo® 2.0 Luminescent cell viability assay reagent was purchased from Promega (Madison, Wis.). FGFR1-BCR Ba/F3 and FGFR3-BAIAP2L1 Ba/F3 cells were cultured in RPMI1640 media supplemented with 10% fetal bovine serum. Cultures were maintained at 37° C. in a humidified atmosphere of 5% CO2 and 95% air.
Cells were plated in 96-well clear bottom/white plates (Corning #3903) at 10,000 cells/well in 100 μl of media, incubated overnight. The next day, test compound DMSO stock solutions were made at 10 mM and 2 μM final concentration. Compounds were then added to cells in a 9-dose, 10-fold dilution series starting at 30 μM with an HP 300e Digital Dispenser (each dose was applied in triplicate). DMSO was backfilled to each well up to 301 nL total volume of test compound+DMSO, and a total of 301 nL DMSO was added to a control/no test compound well in triplicate. The cells in cell culture plates were incubated with the compounds at 37° C. and 5% CO2 for 48 hours. Then 50 μl of Cell Titer Glo 2.0 reagent was added to each well of the cell culture plates. The contents were covered from light and mixed on an orbital shaker at room temperature for 10 min. Luminescence was recorded by a Synergy H1 Microplate Reader (Biotek, Winooski, Vt.). Cells were assessed as a percentage of DMSO only treated control cells. Curves were plotted and IC50 values were calculated using the GraphPad Prism 8 program based on a sigmoidal dose-response equation (4 parameter).

We go through twelve molecules from patent US20230115945A1, “AMINOPYRIMIDINE COMPOUNDS” (TYRA BIOSCIENCES, INC., priority 2019, published 2023).

T1 sequence (P11362 22-822): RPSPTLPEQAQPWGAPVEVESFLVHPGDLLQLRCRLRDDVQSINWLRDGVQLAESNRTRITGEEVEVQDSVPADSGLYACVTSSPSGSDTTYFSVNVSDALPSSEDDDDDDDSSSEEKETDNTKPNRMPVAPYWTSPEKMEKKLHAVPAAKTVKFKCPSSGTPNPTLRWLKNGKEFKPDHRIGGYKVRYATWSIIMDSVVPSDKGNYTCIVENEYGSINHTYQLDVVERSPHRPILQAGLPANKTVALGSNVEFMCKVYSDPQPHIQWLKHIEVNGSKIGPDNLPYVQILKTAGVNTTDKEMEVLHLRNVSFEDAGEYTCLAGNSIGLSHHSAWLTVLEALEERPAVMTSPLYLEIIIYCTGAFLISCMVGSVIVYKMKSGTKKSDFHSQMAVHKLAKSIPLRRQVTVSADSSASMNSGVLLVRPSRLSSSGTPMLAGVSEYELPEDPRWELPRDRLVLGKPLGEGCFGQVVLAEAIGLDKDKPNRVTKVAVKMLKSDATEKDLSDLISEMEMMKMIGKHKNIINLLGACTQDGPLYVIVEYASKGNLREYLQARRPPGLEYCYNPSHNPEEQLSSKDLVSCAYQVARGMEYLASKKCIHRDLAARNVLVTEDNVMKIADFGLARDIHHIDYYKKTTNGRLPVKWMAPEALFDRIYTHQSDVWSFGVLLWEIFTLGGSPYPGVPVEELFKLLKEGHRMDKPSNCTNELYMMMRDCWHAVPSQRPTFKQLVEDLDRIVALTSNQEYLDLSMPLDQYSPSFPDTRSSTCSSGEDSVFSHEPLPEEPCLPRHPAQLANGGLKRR

Take `Cc1cnc(Nc2ccc(S(=N)(=O)C3CC3)cc2)nc1-c1c[nH]c2ccccc12` (centres unmarked) [Example 51, N-[4-(Cyclopropyl-sulfonimidoyl)-phenyl]-4-(1H-indol-3-yl)-5-methyl-pyrimidin-2-amine]: the figures for the IC50 in assay [1] and in assay [2] were 48 nM and 45 nM, respectively. The Kd (as a rule, the concentration at which binding is half-saturated) on FGFR1 was found to be 10 nM; at FGFR3 (V555M) it was 3 nM; at FGFR2, 6 nM; at FGFR4 it was 130 nM; on FGFR3, 18 nM.
On to `CS(=N)(=O)c1ccc(Nc2ncc(Cl)c(-c3c[nH]c4ccccc34)n2)cc1` (centres unmarked) [Example 52, 5-Chloro-4-(1H-indol-3-yl)-N-[4-(methylsulfonimidoyl)-phenyl]pyrimidin-2-amine], for which the values for the IC50 in assay [1] and in assay [2] were 76 nM and 83 nM, respectively. In addition, the Kd on FGFR1 is 27 nM; at FGFR3 (V555M) it was 6 nM; on FGFR2 it was 9 nM; at FGFR4, 390 nM; at FGFR3 it was 24 nM.
On to `N=S1(=O)CCN(c2ccc(Nc3ncc(Cl)c(-c4c[nH]c5ccccc45)n3)cc2)CC1` [Example 53, 5-Chloro-N-[4-(1-imino-1-oxo-1,4-thiazinan-4-yl)phenyl]-4-(1H-indol-3-yl)pyrimidin-2-amine], for which the figures for the IC50 in assay [1] and in assay [2] were 22 nM and 31 nM, respectively. Besides, the Kd at FGFR1 amounted to 5 nM; at FGFR3 (V555M) it was 1 nM; at FGFR2 it was 3 nM; on FGFR4, 74 nM; on FGFR3, 11 nM.
As to `Cc1cnc(Nc2ccc(N3CCS(=N)(=O)CC3)cc2)nc1-c1c[nH]c2ccccc12` [Example 54, N-[4-(1-Imino-1-oxo-1,4-thiazinan-4-yl)phenyl]-4-(1H-indol-3-yl)-5-methyl-pyrimidin-2-amine], the IC50 in assay [1] was 33 nM; in assay [2] it was 44 nM. Further, the Kd is 10 nM at FGFR1; 2 nM on FGFR3 (V555M); 7 nM on FGFR2; 100 nM on FGFR4; 13 nM on FGFR3.
As to `CN1CCS(=O)(=Nc2ccc(Nc3ncc(Cl)c(-c4c[nH]c5ccccc45)n3)cc2)CC1` [Example 55, 5-Chloro-4-(1H-indol-3-yl)-N-[4-[(4-methyl-1-oxo-1,4-thiazinan-l-ylidene)amino]-phenyl]pyrimidin-2-amine], the IC50 in assay [1] worked out at 49 nM; in assay [2], 40 nM. Besides, the Kd on FGFR1 was determined as 13 nM; at FGFR3 (V555M), 2 nM; on FGFR2 it was 6 nM; on FGFR4, 110 nM; on FGFR3, 23 nM.
For the molecule `Cc1[nH]c2ccccc2c1-c1nc(Nc2ccc(S(C)(=N)=O)cc2)ncc1Cl` (centres unmarked) [Example 56, 5-Chloro-4-(2-methyl-1H-indol-3-yl)-N-[4-(methylsulfonimidoyl)phenyl]-pyrimidin-2-amine], the IC50 in assay [1] turned out to be 377 nM; in assay [2], 857 nM. The Kd on FGFR1 is 64 nM; at FGFR3 (V555M), 3 nM; on FGFR2, 34 nM; on FGFR4, 740 nM; on FGFR3 it was 49 nM. Moreover, the GI50 in assay [3] was 273 nM.
Regarding `Cc1cnc(Nc2ccc(S(C)(=N)=O)cc2)nc1-c1c(C)[nH]c2ccccc12` (centres unmarked) [Example 57, 5-Methyl-4-(2-methyl-1H-indol-3-yl)-N-[4-(methylsulfonimidoyl)phenyl]-pyrimidin-2-amine], the IC50 in assay [1] amounted to 610 nM; in assay [2], 803 nM. The Kd came out at 50 nM at FGFR1; 6 nM at FGFR3 (V555M); 43 nM on FGFR2; 680 nM on FGFR4; 53 nM at FGFR3. Moreover, in assay [3], the GI50 came out at 431 nM.
Take `CN(C)C/C=C/C(=O)Nc1ccc2c(ccn2-c2nc(Nc3ccc(N=S(C)(C)=O)cc3)ncc2Cl)c1` [Example 67, (E)-N-[1-[5-Chloro-2-[4-[[dimethyl(oxo)-λ^6-sulfanylidene]amino]anilino]-pyrimidin-4-yl]indol-5-yl]-4-(dimethylamino)but-2-enamide]: the values for the IC50 in assay [1] and in assay [2] were 421 nM and 1450 nM, respectively. Moreover, the Kd on FGFR1 was determined as 130 nM; on FGFR3 (V555M), 9.8 nM; on FGFR2, 120 nM; at FGFR4, 510 nM; on FGFR3, 62 nM.
As to `C=CC(=O)Nc1ccc2c(ccn2-c2nc(Nc3ccc(N=S4(=O)CCN(C)CC4)cc3)ncc2Cl)c1` [Example 69, N-[1-[5-Chloro-2-[4-[(4-methyl-1-oxo-1,4-thiazinan-1-ylidene)amino]anilino]pyrimidin-4-yl]indol-5-yl]prop-2-enamide], the IC50 is 82 nM in assay [1] and 14 nM in assay [2]. The Kd came to 33 nM at FGFR1; 3.8 nM on FGFR3 (V555M); 28 nM at FGFR2; 160 nM on FGFR4; 14 nM at FGFR3.
On to `C=CC(=O)Nc1ccc2c(ccn2-c2nc(Nc3ccc(S(C)(=N)=O)cc3)ncc2C)c1` (centres unmarked) [Example 74, N-[1-[5-Methyl-2-[4-(methylsulfonimidoyl)anilino]-pyrimidin-4-yl]indol-5-yl]prop-2-enamide], for which the IC50 in assay [1] stood at 713 nM; in assay [2], 9 nM. For the same molecule, the equilibrium dissociation constant (Kd) on FGFR1 was 140 nM; on FGFR3 (V555M) it was 20 nM; at FGFR2 it was 77 nM; at FGFR4 it was 560 nM; on FGFR3, 41 nM.
With `C=CC(=O)Nc1ccc2c(-c3nc(Nc4ccc(S(=N)(=O)C5CC5)cc4)ncc3Cl)c[nH]c2c1` (centres unmarked) [Example 90, N-[3-[5-Chloro-2-[4-(cyclopropylsulfonimidoyl)anilino]pyrimidin-4-yl]-1H-indol-6-yl]prop-2-enamide], the IC50 in assay [1] stood at 81 nM; in assay [2], 71 nM. Besides, the Kd was 47 nM at FGFR1; 4 nM on FGFR3 (V555M); 59 nM on FGFR2; 360 nM on FGFR4; 41 nM on FGFR3.
In the case of `C=CC(=O)Nc1cccc2c(-c3nc(Nc4ccc(S(C)(=N)=O)cc4)ncc3Cl)c[nH]c12` (centres unmarked) [Example 91, N-[3-[5-chloro-2-[4-(methylsulfonimidoyl)anilino]pyrimidin-4-yl]-1H-indol-7-yl]prop-2-enamide], the IC50 in assay [1] is 48 nM; in assay [2], 19 nM. In addition, the Kd at FGFR1 was determined as 19 nM; at FGFR3 (V555M), 2 nM; at FGFR2, 24 nM; on FGFR4 it was 130 nM; at FGFR3, 48 nM.
